Consider one compound from patent publication US8961924B2, “Metal complexes” (University of Zurich, priority 2008, dated 2015).

Molecules are shown by their SMILES.

The data set can be described thus: Model experiments with 99Tc complex kept at pH 1. The data set is classed as physicochemical. Particulars: complex with 99Tc; kept at pH 1 for days.

As to `[O]=[Tc]12(=[O])(=[O])[N]3CC[N]1CC[N]2CC3` [Compound 1, [TcO3(tacn)]^+], the “hydrolysis at pH 1” value was “without significant hydrolysis”.
